We go through two compounds from patent US4496545A, “Nonapeptide for treating addictive drug withdrawal conditions” (priority 1981, dated 1985).

Where no end group is shown, it is not given here.

One series concerns morphine-dependent mouse. Kind of series: Inhibition of the naloxone-triggered withdrawal leaps of the morphine-dependent mouse. It counts as in vivo. The conditions noted are these: 30 mg/kg s.c. 30 minutes before naloxone; median leaps vs NaCl control. The source says: An opiate-dependent organism for example reacts the same irrespective of species on the sudden withdrawal of the opiate (e.g. morphine) with withdrawal symptoms, i.e. addictive drug withdrawal conditions. In the course of this occurrence central and peripheral symptoms appear, of which the most striking in the mouse is a series of violent leaps (the so-called "jumping"). The number of leaps per time interval is proportional to the intensity of the withdrawal effect and their enumeration enables the incident to be evaluated quantitatively.
In order to produce the dependence a compressed tablet, which contained 75 mg of morphine (base) and which progressively dissolved with continuous liberation of the morphine, was implanted under the dorsal skin of male mice (weight about 22 g). On the third day after the implantation the morphine antagonist naloxone in a dosage of 0.1 mg/kg was administered subcutaneously to the animals in order to trigger off the withdrawal leaps.
After the injection, the leaps of each individual animal were counted for 20 minutes. The group median value was calculated from the total leaps of 8 animals, which formed a group. […] The dosage median values and, respectively, control median values were calculated from all individual values per dosage and, respectively, the positive and negative controls.

For series [1], the system named is dogs. The note with it: dog, in vivo.
Method: (§1) Toxicological studies were carried out on 12 male and 12 female rats as well as on 3 male and 3 female dogs per dosage. For this purpose DSIP was dissolved in physiological sodium chloride solution and administered intravenously daily for 4 weeks in the dosages of 0.6, 1.8 and 6 mg/kg. At an interval of 2 weeks during these studies the hematological, hematochemical and the urine status were determined, and the electrocardiogram was recorded and analyzed.
(§2) At the termination of the aforementioned studies all animals were painlessly killed and there followed the autopsy besides the removal of organ samples for histological investigations.
Series [2] deals with dogs. Kind of series: Toxicological study, daily intravenous administration for 4 weeks, dogs. The note with it: maximum dosage (6 mg/kg i.v. daily for 4 weeks).
Method: as §1, §2
In series [3] the test system is rats. The conditions noted are these: rat, in vivo.
Method: as §1, §2
The test system of series [4] is alcoholic or methadone- or heroin-dependent patients. The note with it: human, in vivo.
Method: Of the 25 alcoholic patients 8 were on admission already in delirium tremens to a medium to severe degrees. After the first subjective and objective withdrawal signs manifested themselves the patients received up to 4 intravenous infusions of in each case 0.0214 mg/kg of DSIP daily. For this purpose, the substance was dissolved in physiological sodium chloride solution and infused in the course of 5 minutes.
The duration of treatment amounted to a maximum of 3 days.
Series [5] has as its system rats. The series can be described thus: Toxicological study, daily intravenous administration for 4 weeks, rats. The conditions noted are these: maximum dosage (6 mg/kg i.v. daily for 4 weeks).
Method: as §1, §2

`CN1CC[C@]23c4c5ccc(O)c4O[C@H]2[C@@H](O)C=C[C@H]3[C@H]1C5` [Morphine]: the “% of negative control” value in the series with morphine-dependent mouse turned out to be 27%.
As for “WAGGDASGE [DSIP, Trp-Ala-Gly-Gly-Asp-Ala-Ser-Gly-Glu]”, the “Tolerability of the dosages” value with dogs [1] and with rats [3] was “tolerated without any side effects” throughout. For the same compound, the Electrocardiogram result in the series with dogs [2] and in the series on rats [5] was “no changes in the electrocardiogram” in each case. Further, the “Tolerance of DSIP: poor” value in series [4] is on record as 2 patients.
